Where two headings read alike, the source gives them in different places.
Tests used:
[1] = test system: organic anion transporter 4; conditions: in vitro; at clinically relevant concentrations; cited from earlier work
[2] = test system: organic anion transporter 3; conditions: in vitro; at clinically relevant concentrations; cited from earlier work
bile salt export pump = conditions: in vitro; at clinically relevant concentrations; cited from earlier work
JAK1 = conditions: whole blood and cellular assays; cited from earlier work
[3] = test system: organic anion transporting polypeptide 1B1; conditions: in vitro; cited from earlier work
[4] = ulcerative colitis phase IIb/III, cited from earlier work
[5] = assay type: in vivo, human
[6] = biological target: T1, organic cation transporter 2 (OCT2) (Homo sapiens, UniProt O15244); conditions: in vitro; cited from earlier work
T1 sequence (O15244 1-555): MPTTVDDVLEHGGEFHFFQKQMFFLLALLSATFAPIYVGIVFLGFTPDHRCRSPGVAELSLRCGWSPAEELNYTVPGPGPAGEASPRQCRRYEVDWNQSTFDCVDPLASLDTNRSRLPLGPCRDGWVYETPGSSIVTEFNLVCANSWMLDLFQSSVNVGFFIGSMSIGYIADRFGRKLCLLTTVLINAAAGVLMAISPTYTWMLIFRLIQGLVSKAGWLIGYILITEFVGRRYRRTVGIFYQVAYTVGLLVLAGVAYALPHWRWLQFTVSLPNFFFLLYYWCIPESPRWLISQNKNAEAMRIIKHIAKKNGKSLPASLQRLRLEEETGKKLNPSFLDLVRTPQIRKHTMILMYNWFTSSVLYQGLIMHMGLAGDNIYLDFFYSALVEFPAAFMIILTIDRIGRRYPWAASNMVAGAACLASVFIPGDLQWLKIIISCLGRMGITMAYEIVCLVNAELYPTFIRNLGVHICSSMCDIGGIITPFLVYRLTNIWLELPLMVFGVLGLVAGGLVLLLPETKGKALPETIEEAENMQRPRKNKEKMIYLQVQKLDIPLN

Safety assessments = assay type: in vivo, human; conditions: for subjects with at least one graded laboratory abnormality: majority grade 1 or 2
MATE1 [7] = biological target: T2, MATE1 (Homo sapiens, UniProt Q96FL8); conditions: in vitro; cited from earlier work
T2 sequence (Q96FL8 1-570): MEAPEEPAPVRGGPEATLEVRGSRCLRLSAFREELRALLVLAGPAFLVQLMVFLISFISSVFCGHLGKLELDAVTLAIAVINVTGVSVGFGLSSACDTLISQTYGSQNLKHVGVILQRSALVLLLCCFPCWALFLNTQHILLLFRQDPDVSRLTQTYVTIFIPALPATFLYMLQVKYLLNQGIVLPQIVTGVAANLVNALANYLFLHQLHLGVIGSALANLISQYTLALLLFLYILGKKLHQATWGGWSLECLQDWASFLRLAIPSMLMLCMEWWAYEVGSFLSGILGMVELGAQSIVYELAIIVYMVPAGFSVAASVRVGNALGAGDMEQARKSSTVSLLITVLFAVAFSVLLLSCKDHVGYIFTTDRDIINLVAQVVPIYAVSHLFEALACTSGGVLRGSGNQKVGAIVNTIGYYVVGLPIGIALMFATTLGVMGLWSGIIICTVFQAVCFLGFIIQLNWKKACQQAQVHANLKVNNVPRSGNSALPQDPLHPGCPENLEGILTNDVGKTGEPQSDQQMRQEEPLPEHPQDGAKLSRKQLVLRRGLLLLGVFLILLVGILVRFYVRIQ

cytochrome P450 enzymes = conditions: cited from earlier work
[8] = test system: organic anion transporting polypeptide 1B3; conditions: in vitro; cited from earlier work
[9] = test system: human colon carcinoma‐derived (Caco‐2) cells; conditions: no reference given; cited from earlier work
P‐glycoprotein = conditions: in vitro; cited from earlier work
MATE1 [10] = biological target: T2, MATE1; assay: In vitro transporter inhibition: MATE1; assay type: in vitro ADME; conditions: data on file at Gilead Sciences, Inc.
[11] = test system: carboxylesterase 2 (CES2); conditions: cited from earlier work
[12] = cited from earlier work
[13] = cited from earlier work; remark: listed apart in the source
[14] = test system: organic cation transporter 1; conditions: in vitro; at clinically relevant concentrations; cited from earlier work
[15] = biological target: T1, organic cation transporter 2 (OCT2); assay: In vitro transporter inhibition: OCT2; assay type: in vitro ADME; conditions: data on file at Gilead Sciences, Inc.
[16] = 200 mg and 100 mg once‐daily; patients with active rheumatoid arthritis; phase III; cited from earlier work
[17] = no reference given; cited from earlier work
P‐gp = conditions: in vitro; at clinically relevant concentrations; cited from earlier work
[18] = study 1, filgotinib 100 mg with itraconazole 200 mg vs alone
[19] = study 1, filgotinib + itraconazole vs filgotinib alone
[20] = study 3, filgotinib treatment period
[21] = patients with rheumatoid arthritis

In the case of O=C(Nc1nc2cccc(-c3ccc(CN4CCS(=O)(=O)CC4)cc3)n2n1)C1CC1 [Filgotinib], the “inhibition of organic anion transporter 4” value [1] is given as “not inhibitors”, the “inhibition of organic anion transporter 3” value [2] is given as “not inhibitors” and the “inhibition of bile salt export pump” value (bile salt export pump) is given as “not inhibitors”. For the same compound, the “potency on JAK1 over JAK2, JAK3, tyrosine kinase 2, and other kinases” value (JAK1) was “greater than five‐fold higher potency”, the “inhibition of OATP1B1” value [3] was “inhibited” and the “primary end point in the induction studies” value ([4]; 100 mg dose) was “did not meet the primary end point”. The “primary end points (clinical remission at week 10 and week 58)” value ([4]; 200 mg dose) was “met all the primary end points”, the Tmax ([5]; human, plasma, oral) was 1 h and the half-life ([5]; human, plasma, oral) was 376 min. It also gave an AUC(0-inf) ([5]; human, plasma, oral, 100 mg) of 2190 ng·h/mL, an AUC(0-t) ([5]; human, plasma, oral, 100 mg) of 2170 ng·h/mL and a Cmax ([5]; human, plasma, oral, 100 mg) of 756 ng/mL. For the same compound, the Tmax ([5]; human, plasma, oral, 100 mg) was 1 h, the half-life ([5]; human, plasma, oral, 100 mg) was 444 min and the “increase in AUCinf by itraconazole” value [5, 18] was 45%. The “increase in C max by itraconazole” value [5, 18] was 64%, the “AUCinf %GLSM ratio (90% CI)” value [5, 19] was 145 (133, 157) % and the “AUClast %GLSM ratio (90% CI)” value [5, 19] was 145 (133, 158) %. For the same compound, the “C max %GLSM ratio (90% CI)” value [5, 19] was 164 (129, 208) %, the “effect of itraconazole on pharmacokinetic parameters (in words)” value ([5]; study 1, filgotinib: Tmax, t1/2, GS‐829845: C max, AUCinf, T max, t 1/2) was “did not affect” and the CL/F ([5]; study 1, single filgotinib 100 mg alone, fasting, mean (%CV), N = 13) was 48.6 (25.0) L/h. For the same compound, the “inhibition of OCT2” value [6] was “inhibited”, the “tolerability (in words)” value (Safety assessments; all three studies, alone or with the co‐administered drugs) was “generally well‐tolerated” and the “subjects with AEs” value (Safety assessments; study 1, by treatment period, all grade 1, not related to study drug) was 7.7%. The “subjects with at least one graded laboratory abnormality” value (Safety assessments; study 1, by treatment period) was 15%, the “subjects with at least one graded laboratory abnormality” value (Safety assessments; study 2, by treatment period) was 14% and the “subjects with AEs” value (Safety assessments; study 3, by treatment period, all grade 1) was 8.3%. The “subjects with grade 3 decreased lymphocytes and neutrophils” value (Safety assessments; [20]) was 8.3%, the “subjects with grade 3 laboratory abnormalities” value (Safety assessments; [20]) was 25% and the “subjects with grade 3 occult blood in urine” value (Safety assessments; [20]) was 17%. For the same compound, the “subjects with at least one graded laboratory abnormality” value (Safety assessments; [20]) was 75%, the “AE considered related to study drug (kind of AE)” value (Safety assessments; study 3, one subject, by treatment phase) was “headache” and the “inhibition of MATE1” value (MATE1 [7]) was “inhibited”. For the same compound, the “drug‐drug interactions (DDIs) liability with cytochrome P450 enzymes” value (cytochrome P450 enzymes; in vitro and in vivo data) was “relatively low”, the “substrate of the cytochrome P450 enzymes” value (cytochrome P450 enzymes; in vitro data, no reference given) was “not a substrate” and the “inhibition of OATP1B3” value [8] was “inhibited”. For the same compound, the “efflux in Caco‐2 cells” value [9] was “active efflux”, the “substrate of P‐glycoprotein” value (P‐glycoprotein) was “substrates” and the “inhibition of MATE1 (in words)” value (MATE1 [10]; in vitro data) was “may inhibit”. The “ratio of maximum unbound plasma concentration over in vitro IC50 against MATE1” value (MATE1 [10]; [21]) was 0.26, the “metabolism by CES2 to form GS‐829845 (in words)” value [11] was “primarily metabolized” and the “administered dose eliminated in the urine as filgotinib and its metabolites” value [12] was “Approximately 87%”. The “dose eliminated in the feces” value [12] was “about 15%”, the “orally administered dose recovered in feces as the named species” value ([12]; filgotinib: unchanged) was about 5% and the “orally administered dose recovered in urine as the named species” value ([12]; filgotinib: unchanged) was ~ 9%. For the same compound, the “accumulation following multiple doses” value [13] was “no accumulation”, the “time to steady‐state concentrations” value [13] was ~ 2 days and the linearity of pharmacokinetics ([13]; from 50 to 200 mg, dose proportional and time‐independent) was “linear”. For the same compound, the “inhibition of organic cation transporter 1” value [14] was “not inhibitors”, the “inhibition of OCT2 (in words)” value ([15]; in vitro data) was “may inhibit” and the “ratio of maximum unbound plasma concentration over in vitro IC50 against OCT2” value [15, 21] was 0.26. For the same compound, the “signs and symptoms and physical function” value [16] was “significantly improved”, the “permeability (BCS)” value [17] was “high permeability” and the “solubility (BCS)” value [17] was “low solubility”. The “inhibition of P‐gp” value (P‐gp) was “not inhibitors”.

From paper PMC8841438 (Clinical and Translational Science, 2021)
